Test results from patent US9315522B2, “Antibacterial compounds” (JANSSEN SCIENCES IRELAND UC, priority 2012, dated 2016).
In brackets after ≈: the same amount, converted by molar mass. Several values for one entry are separate records, joined by “and”; a condition that tells them apart may be missing. Equal entries are not always repeated.

What was measured:
[1] = biological target: T1, S. aureus ATCC 29213 FabI (Staphylococcus aureus, UniProt Q6GI75); experiment: Staphylococcus aureus FabI enzyme inhibition assay; format: biochemical; details: read-out: FabI (300.235) IC50 (converted)
T1 sequence (Q6GI75 1-256): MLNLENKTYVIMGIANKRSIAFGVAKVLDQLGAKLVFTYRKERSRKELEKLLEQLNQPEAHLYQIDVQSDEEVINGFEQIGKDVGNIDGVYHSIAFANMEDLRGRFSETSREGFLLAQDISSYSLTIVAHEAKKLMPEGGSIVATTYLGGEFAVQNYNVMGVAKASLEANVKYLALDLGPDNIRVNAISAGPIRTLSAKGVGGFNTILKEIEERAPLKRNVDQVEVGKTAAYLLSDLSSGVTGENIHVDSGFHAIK
Procedure: Y.1 FabI Enzyme Inhibition: Staphylococcus aureus FabI Enzyme Inhibition Assay
FabI enzyme inhibition assays were carried out in half-area, 384-well microtitre plates. Compounds were evaluated in 40-μl assay mixtures containing 100 mM NaADA, pH 6.5 (ADA=N-[2-acetamido]-2iminodiacetic acid), 250 μM crotonoyl-CoA, 625 μM NADH and 50 μg/ml S. aureus ATCC 29213 FabI. Inhibitors were typically varied over the range of 50 to 0.39 μM. The reaction mixtures were incubated for 30 minutes at room temperature and the reaction was stopped by adding 200 mM Tris buffer (pH 9.0) to create a pH-shift. The consumption of NADH was monitored by measuring the change in absorbance at […]. By comparing sample readings to those of negative (absence of compound) and positive (absence of enzyme) controls, the percent inhibition of enzymatic activity of the compounds was determined A best-fit curve is fitted by a minimum of squares method. From this an IC50-value (expressed in μg/ml), resulting in 50% inhibition of enzymatic activity, was obtained.

[2] = system: Staphylococcus aureus ATCC 29213; experiment: Antibacterial susceptibility testing, IC90 determination (STA); format: cell-based; details: Staphylococcus aureus, ATCC29213, Staphylococcus aureus ATCC 29213, broth microdilution, resazurin; read-out: STA (361.159) IC90
Procedure: (§1) The following bacteria were used: Staphylococcus aureus ATCC 29213, methicillin-resistant Staphylococcus aureus (MRSA) ATCC 700788 and Escherichia coli ATCC 35218. The bacteria used in this study were grown overnight in flasks containing 100 ml Mueller-Hinton broth (Difco cat. nr. 0757-17) in sterile de-ionized water, with shaking, at 37° C. Stocks were store at −70° C. until use.
(§2) Bacteria were incubated on a tryptic soy agar plate containing 5% sheep blood (Becton Dickinson cat. nr. 254053) for 18-24 hours at 35° C. in aerobic conditions (first passage). For the second passage, fresh Mueller-Hinton broth is inoculated with 5-10 colonies and grown overnight at 35° C. until turbidity (reaching log-phase) in aerobic conditions is reached. The bacterial suspension is then adjusted to 0.5 McFarland density and further diluted 1:100 in Mueller Hinton broth medium. This is used as inoculum.
The result(s) are depicted the table below (for STA ATCC 29213).
(§3) MIC assays were performed by the broth microdilution method in a 96-well format (flat-bottom microtitre plates) with a final volume of 0.1 ml Mueller Hinton broth containing two-fold serial dilutions of compounds and inoculated with 5×10^5 CFU/ml of bacteria (standard inoculum size according to CLSI guidelines). Inhibitors are typically varied over the range of 63 to 0.49 μM. The final DMSO concentration in the assay was 1.25% (maximum tolerable DMSO concentration=6%). In the assays where the effect of human serum on the activity of the compounds against S. aureus was tested, human serum was added at a final concentration of 10%. The plates were incubated at 35° C. for 16-20 hours. At the end of incubation the bacterial growth was quantified fluorometrically. For this, resazurin was added to all wells and the plates were re-incubated. The incubation time is dependent on the type of bacteria. A change in color from blue to pink indicated the growth of bacteria. The fluorescence was read in computer-controlled fluorometer (Fluoroskan Ascent FL, Labsystems) at an excitation wavelength 540 nm and an emission wavelength of 590 nm. The % growth inhibition achieved by the compounds was calculated according to standard methods. The IC90 (expressed in μg/ml) was defined as the 90% inhibitory concentration for bacterial growth. A panel of reference compounds were simultaneously tested for QC approval.

S. aureus = experiment: Antibacterial susceptibility testing, IC90 determination with 10% human serum (STA + 10% HS); format: cell-based, Staphylococcus aureus; details: Staphylococcus aureus, human serum at final concentration of 10%, read-out: STA + 10% HS (361.169) IC90
Procedure: as §1, §2, §3
The results are depicted in the table(s) below (STA+10% HS).

[3] = Cytotoxicity MTT assay (HELAM); format: cell-based, Human; details: human, HelaM cells, read-out: HELAM (222.125) CC50
Procedure: Cytotoxicity of the compounds was evaluated using the MTT assay. Human HelaM cells grown in 96-well plates were exposed to serial dilutions of the tested compounds (final volume of 0.2 ml) and incubated for 72 hours at 37° C. and 5% CO2. Inhibitors are typically varied over the range of 25 to 0.8 μM. The final DMSO concentration in the assay is 0.5%. MTT (3-(4,5-Dimethylthiazol-2-yl)-2,5-diphenyltetrazolium bromide, a tetrazole) was added and reduced to purple formazan only in living cells. Solubilization of the formazan crystals was achieved by adding 100 μl 2-propanol. Cell viability was determined by measuring the absorbance of the reduced formazan, giving a purple color, at 540 nm and 690 nm. The absorbance measured at 690 nm was automatically subtracted from the absorbance at 540 nm, to eliminate the effects of non-specific absorption. The percent cytotoxicity achieved by the compounds was calculated according to standard methods. Cytotoxicity is reported as CC50, the concentration that causes a 50% reduction in cell viability.
The results are depicted in the table(s) below (HELAM).

| SMILES | IC50 [1] [nM] | IC90 [2] [µg/mL] | IC90 (S. aureus) [µg/mL] | CC50 at 72 h [3] [µg/mL] | melting point |
| --- | --- | --- | --- | --- | --- |
| O=C1Nc2ncc(/C=C/C(=O)N3CC4C=C(c5ccsc5)CC4C3)cc2CO1 (stereo not drawn) [compound 35] | 839 | 0.16 (≈ 0.407 µM) | 0.37 | > 3.93 | > 250 °C |
| O=C(Nc1ccc(/C=C/C(=O)N2CC3C=C(c4ccccc4)CC3C2)cn1)c1ccccc1 (stereo not drawn) [compound 13] | 3560 | 0.76 (≈ 1.75 µM) | 5.36 | > 10.9 | 120 °C |
| COc1cncc(C(=O)Nc2ccc(/C=C/C(=O)N3CC4C=C(c5ccnn5C)CC4C3)cn2)c1 (stereo not drawn) [compound 31] | 659 | 0.72 (≈ 1.53 µM) | 0.86 | > 11.8 | 89.36 °C |
| O=C1Nc2ncc(/C=C/C(=O)N3CC4C=C(c5ccncc5)CC4C3)cc2CO1 (stereo not drawn) [compound 55] | 927 | 0.76 (≈ 1.96 µM) | 0.71 | > 9.76 | 156 °C |
| Cc1cncc(C(=O)Nc2ccc(/C=C/C(=O)N3CC4C=C(c5ccsc5)CC4C3)cn2)c1 (stereo not drawn) [compound 5] | 1730 | < 0.22 | 0.36 | 10.1 (≈ 22.1 µM) | 208.43 °C |
| CC(C)C1Oc2cc(/C=C/C(=O)N3CC4C=C(c5ccncc5)CC4C3)cnc2NC1=O (stereo not drawn) [compound 65] | 859 | < 0.21 | < 0.21 | > 10.8 | 113.11 °C |
| O=C1Nc2ncc(/C=C/C(=O)N3CC4C=C(c5ccccc5)CC4C3)cc2CN2CCSCC12 (stereo not drawn) [compound 77] | 1180 | 0.26 (≈ 0.55 µM) | 0.59 | 1.2 (≈ 2.54 µM) | 214 °C |
| CN1CC(=O)Nc2ncc(/C=C/C(=O)N3CC4C=C(c5ccccc5)CC4C3)cc2C1 (stereo not drawn) [compound 50] | 965 | 0.35 (≈ 0.844 µM) | 0.4 | > 20.8 | 202 °C |
| COc1cncc(C(=O)Nc2ccc(/C=C/C(=O)N3CC4C=C(c5ccsc5)CC4C3)cn2)c1 (stereo not drawn) [compound 33] | 1290 | < 0.23 | < 0.23 | > 11.9 | 205 °C |
| Cn1nccc1C1=CC2CN(C(=O)/C=C/c3cnc4c(c3)CNCC(=O)N4)CC2C1 (stereo not drawn) [compound 57] | 939 | 1.54 (≈ 3.81 µM) | 1.52 | > 10.2 | 228 °C |
| O=C(Cc1ccncc1)Nc1ccc(/C=C/C(=O)N2CC3C=C(c4ccncc4)CC3C2)cn1 (stereo not drawn) [compound 17] | 1440 | 1.33 (≈ 2.95 µM) | 1.4 | > 4.51 | > 250 °C |
| O=C(Cc1ccncc1)Nc1ccc(/C=C/C(=O)N2CC3C=C(c4ccccc4)CC3C2)cn1 (stereo not drawn) [compound 14] | 1730 | 0.86 (≈ 1.91 µM) | 2.65 | > 11.3 | 239.7 °C |
| O=C1COCc2cc(/C=C/C(=O)N3CC4C=C(c5nccs5)CC4C3)cnc2N1 (stereo not drawn) [compound 49] | ~930 | 0.25 (≈ 0.612 µM) | 0.24 | > 10.3 | 260.34 °C |
| O=C1COCc2cc(/C=C/C(=O)N3CC4C=C(c5ccccc5)CC4C3)cnc2N1 (stereo not drawn) [compound 39] | ~1620 | < 0.19 | 0.35 | > 10.1 | 266.57 °C and 266.6 °C |
| Cn1nccc1C1=CC2CN(C(=O)/C=C/c3cnc4c(c3)COCC(=O)N4)CC2C1 (stereo not drawn) [compound 56] | 1180 | 1.51 (≈ 3.72 µM) | 1.44 | > 10.2 | 149 °C |
| COc1cncc(C(=O)Nc2ccc(/C=C/C(=O)N3CC4C=C(c5nccs5)CC4C3)cn2)c1 (stereo not drawn) [compound 32] | 718 | < 0.23 | < 0.23 | > 11.9 | 207 °C |
| O=C1COCc2cc(/C=C/C(=O)N3CC4C=C(c5ccncc5)CC4C3)cnc2N1 (stereo not drawn) [compound 54] | 1020 | 0.38 (≈ 0.944 µM) | 0.35 | > 10.1 | 154 °C |
| CN1CC(=O)Nc2ncc(/C=C/C(=O)N3C[C@@H]4CN(c5ccccc5)C[C@@H]4C3)cc2C1 [compound 58] | 1700 | 3.39 (≈ 8.12 µM) | 3.13 | > 10.5 | 178.9 to 179.8 °C |
| O=C(Nc1ccc(/C=C/C(=O)N2CC3C=C(c4ccccc4)CC3C2)cn1)c1cccnc1 (stereo not drawn) [Cpd. No. 3] | 1810 | 0.21 (≈ 0.481 µM) | 0.79 | 1.23 (≈ 2.82 µM) | 238 °C |
| O=C1CC2CCCCN2Cc2cc(/C=C/C(=O)N3C[C@@H]4CC(c5ccccc5)=C[C@@H]4C3)cnc2N1 (stereo partly drawn) [compound 90] | 832 | < 0.21 | < 0.21 | 4.4 (≈ 9.39 µM) | 214.9 to 232.7 °C |
| O=C(Nc1ccc(/C=C/C(=O)N2CC3C=C(c4ccccc4)CC3C2)cn1)c1ccncc1 (stereo not drawn) [compound 12] | 2040 | 0.5 (≈ 1.15 µM) | 1.58 | > 11 | 184 °C |
